Values belong to the compound of their own block, whether it stands above or below them.
Tests used:
[1] = system: thioglycolate-induced peritonitis; assay: Thioglycolate-induced peritonitis murine model; type: in vivo, C57BL/6J mice; conditions: 50 mg/kg i.p. 1 h prior to thioglycolate
Procedure: Therapeutic efficacy of the compounds of the present invention was assessed using thioglycolate-induced peritonitis murine models as described by Cook A D et al. (J Immunol. 2003; 171(9):4816-4823) and Tsai J M et al. (Blood Adv. 2019; 3(18):2713-2721. doi: 10.1182/bloodadvances.2018024026).
C57BL/6J mice were injected intraperitoneally (i.p.) with 1 mL of compounds at 50 mg/kg 1 h prior to the induction of peritonitis. Peritonitis was then induced with 1 ml of sterile thioglycolate broth 4% (wt/vol) or PBS as control. After 3 h, mice were anesthetized by i.p. injection with a solution of PBS containing 5 mg/ml ketamine and 1 mg/ml xylazine and peritoneal cavities were washed with 5 ml ice-cold sterile Ca2+/Mg2+-free HBSS 1×containing EDTA 2 mM. Peritoneal exudate cells (PECs) were centrifuged at 1200 rpm for 5 min at 4° C. and red cells lysed. PECs were washed, resuspended in PBS 10% FBS, incubated with anti-CD16/CD32 and mIgG FcR blockers and then stained with fluorescently conjugated antibodies to characterize migrated leukocytes (anti-CD45, anti-CD11b, anti-Ly6G, anti-CD8a, anti-CD4, anti-CD3). Cell viability was measured by 7-AAD exclusion. Specimens were acquired by flow cytometry using MACSQuant Analyzer (Miltenyi Biotec) and analysed using FlowJo software.
Animals: four C57BL/6J mice per group for each compound versus four vehicle treated mice.
Read out was done 1 h after thioglycolate injection.
Readout method: flow cytometry to characterise migrated leukocytes using anti-CD45, anti-CD11b, anti-Ly6G, anti-CD8a, anti-CD4, anti-CD3.
Results and statistical analysis: Results were analysed using FlowJo software. Data were shown as mean±SEM. Two-tailed Student's t test using a significance level of 0.05 is used for the statistical analysis.

[2] = system: STZ-induced diabetes model; assay: STZ-induced diabetes and diabetic wound healing model; type: in vivo, CD-1 mice; conditions: IV; vs induced vehicle controls
Procedure: Diabetes murine models using streptozotocin (STZ-induced diabetes) were used to assess efficacy of compounds of the present invention for a diabetic wound healing and generate tissue samples to allow post in-life analysis of skin tissue.
These were purchased from Charles River and acclimated for 7 days upon arrival.
Aseptic technique and dosing: Although animals to be used in this study are immuno-competent, preparation of dosing solutions and dosing/weighing of animals were carried out in a sterile biosafety cabinet. IV dosing: Compounds were formulated in 5% DMSO: 10% Solutol: 10% PEG400: 75% PBS and pH adjusted to 7 with 0.5M NaOH solution. PO dosing: formulation is in water.
Animals were anaethetised and a full thickness 6 mm wound created using a sterilized biopsy punch. Wounds were imaged (Days 0). Animals were treated and imaged every 2 days out to day 14 (when control, non-diabetic mouse wounds were healed). Wound images were digitally assessed for area of wound and percentage closure versus time plotted graphically.
Treatment will continue for 2 weeks (14 days). Animal numbers in brackets are dosed for 7 days, then sampled for mid-study PD analysis.
Mid Study sampling: Following 7 days dosing 3 animals per group were killed and wound tissue removed and divided into 2 sections (A) and (B):
(A) First section is FFPE and stained with the following: H&E, Masson's Trichrome, CD31, TGF-β.
(B) Second section are homogenised and used for the following ELISAs: SOD, GTPx, Catalase, TNF-α, IL-6, TGF-β levels.

[3] = system: DBA/2 mouse strain with STZ induction of diabetes; assay: STZ-induced diabetic retinopathy and nephropathy model in DBA/2 mice; type: in vivo; conditions: one and two weeks, FIG. 9
Procedure: Therapeutic efficacy of the compounds according to the present invention was assessed using diabetic mouse model using the DBA/2 mouse strain with STZ induction of diabetes and follow diabetic retinopathy including kidney damage. Five weeks after induction of diabetes via low dose STZ injection for 5 consecutive days, the urinary albumin:Cr ratio is […] compared to 36.9 for age-matched controls.
For treatment of diabetic nephropathy, DBA/2 mice were induced with STZ (low dose for 5 consecutive days).
Treatment was performed for four weeks (IV dosing) with weekly assessment of blood glucose and urine albumin/creatinine levels. At the end of the treatment period animals, the following samples were taken: • Blood for measurement of glucose and Blood Urea Nitrogen (BUN) • Blood for measurement of serum creatinine • Urine for final albumin/creatinine ratio. • Kidney was resected and FFPE: Picro-Sirius Red, Masson's Trichrome and H&E staining was carried out to identify areas of fibrosis, along with evidence of Mesangial sclerosis, Arteriolar hyalinosis, Glomerular Basal Membrane (GBM) thickening
To assess compound effect on diabetic retinopathy, animals had weekly images taken via Fundus Camera. Immediately prior to sacrifice, animals were injected with FITC-dextran via tail vein. During sampling, the eyes were sampled and fixed in formalin. Retinal Flatmounts were prepared and examined fluorescently looking at compound effects on vascularity and leakiness of vessels (indicted by high background staining).

COX2 (cycloxygenase-2) = target: T1, COX2 (cycloxygenase-2) (Homo sapiens, UniProt P35354); assay: Cyclooxygenase enzyme inhibition; type: biochemical
T1 sequence (P35354 18-604): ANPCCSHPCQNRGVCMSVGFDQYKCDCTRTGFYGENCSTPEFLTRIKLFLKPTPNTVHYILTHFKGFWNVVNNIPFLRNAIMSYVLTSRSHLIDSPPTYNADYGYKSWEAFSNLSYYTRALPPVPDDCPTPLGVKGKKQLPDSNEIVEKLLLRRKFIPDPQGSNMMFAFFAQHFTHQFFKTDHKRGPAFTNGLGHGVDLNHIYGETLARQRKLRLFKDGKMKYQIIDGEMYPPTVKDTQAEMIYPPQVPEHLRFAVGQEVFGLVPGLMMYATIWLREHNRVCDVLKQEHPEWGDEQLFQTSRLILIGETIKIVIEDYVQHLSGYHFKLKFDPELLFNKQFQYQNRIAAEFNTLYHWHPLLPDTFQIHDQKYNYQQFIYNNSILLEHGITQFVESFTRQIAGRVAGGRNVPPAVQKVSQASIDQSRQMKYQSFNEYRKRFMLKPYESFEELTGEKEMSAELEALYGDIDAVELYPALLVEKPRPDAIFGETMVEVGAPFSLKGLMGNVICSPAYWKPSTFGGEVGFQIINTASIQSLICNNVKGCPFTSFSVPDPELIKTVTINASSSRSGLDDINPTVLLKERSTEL

human primary cells = assay: BioMap Plus phenotypic profiling in human primary cell-based systems; conditions: 30, 10, 3.3, 1.1 μM
Procedure: A series of in vitro assays was performed using human primary cell-based assays modeling complex tissue and disease biology of organs (vasculature, immune system, skin, lung) and general tissue biology for phenotypic profiling of compounds in conditions that preserve crosstalk and feedback mechanisms relevant to in vivo outcomes.

Inhibition of COX2 (COX2 (cycloxygenase-2)): partially inhibition
SMILES: O=C(O)c1cc(O)c(CN(Cc2cc(O)c(C(=O)O)cc2O)Cc2cc(O)c(C(=O)O)cc2O)cc1O [IIIc-061a, Tris(4-carboxy-2,5-dihydroxyphenylmethyl)amine]
% of reduction, CD4+ lymphocytes, treated over vehicle treated mice [1]: 42.9%
% of reduction, CD8+ lymphocytes, treated over vehicle treated mice [1]: 33.3%
% of reduction, Leukocytes (CD45+ cells), treated over vehicle treated mice [1]: −2.4%
% of reduction, PMNs (CD11b-Ly6G double + cells), treated over vehicle treated mice [1]: −8.3%
Blood glucose levels [2]: significant reduction
Blood glucose level [3]: significantly reduced
Antiproliferative effects on human primary cells (human primary cells): did not have any antiproliferative effects
Cytotoxicity in BioMap Plus (human primary cells): not cytotoxic
Immunomodulatory activities (human primary cells): decreased sIL-17A
Inflammation-related activities (human primary cells): decreased I-TAC, MIG
Number of annotated readouts (human primary cells): six
Tissue remodeling activities (human primary cells): decreased Collagen I, Collagen III, PAI-1

SMILES: O=C(O)c1cc(NC(=O)c2cc(O)cc(C(=O)Nc3ccc(O)c(C(=O)O)c3)c2O)ccc1O [IIc-007a, 5-(3-(3-carboxy-4-hydroxyphenylaminocarbonyl)-2,5-dihydroxybenzamido)-2-hydroxy benzoic acid]
% of reduction, CD4+ lymphocytes, treated over vehicle treated mice [1]: 40.0%
% of reduction, CD8+ lymphocytes, treated over vehicle treated mice [1]: 20.0%
% of reduction, Leukocytes (CD45+ cells), treated over vehicle treated mice [1]: 11.8%
% of reduction, PMNs (CD11b-Ly6G double + cells), treated over vehicle treated mice [1]: 27.3%
Inhibition of COX2 (COX2 (cycloxygenase-2)): partially inhibition
Antiproliferative effects on human primary cells (human primary cells): did not have any antiproliferative effects
Cytotoxicity in BioMap Plus (human primary cells): not cytotoxic
Immunomodulatory activities (human primary cells): decreased sIL-10, sIL-2
Inflammation-related activities (human primary cells): decreased sTNFα, MIP-1α; increased IL-8; modulated MCP-1
Number of annotated readouts (human primary cells): 12
Tissue remodeling activities (human primary cells): decreased Collagen I, Collagen IV, Collagen III, PAI-1

Inhibition of COX2 (COX2 (cycloxygenase-2)): partially inhibition
SMILES: O=C(O)c1cc(O)cc(CS(=O)(=O)Cc2cc(O)cc(C(=O)O)c2O)c1O [IVc-059a, 3-((2,5-Dihydroxy-3-carboxyphenyl)methylsulfonylmethyl)-2,5-dihydroxybenzoic acid]
% of reduction, CD4+ lymphocytes, treated over vehicle treated mice [1]: 6.0%
% of reduction, CD8+ lymphocytes, treated over vehicle treated mice [1]: 23.0%
% of reduction, Leukocytes (CD45+ cells), treated over vehicle treated mice [1]: 4.0%
% of reduction, PMNs (CD11b-Ly6G double + cells), treated over vehicle treated mice [1]: −13.0%
Blood glucose levels [2]: significant reduction
Blood glucose level [3]: significantly reduced
Antiproliferative effects on human primary cells (human primary cells): antiproliferative to human primary endothelial cells (1.1 μM)
Cytotoxicity in BioMap Plus (human primary cells): not cytotoxic
Immunomodulatory activities (human primary cells): decreased sIL-10, sIL-2
Inflammation-related activities (human primary cells): decreased sTNFα
Number of annotated readouts (human primary cells): three

SMILES: O=C(O)c1cc(O)c(C(=O)Nc2ccccc2C(=O)O)cc1O [Ia-001a, 4-(2-carboxyphenylaminocarbonyl)-2,5-dihydroxybenzoic acid]
Blood glucose levels [2]: significant reduction
Blood glucose level [3]: significantly reduced

SMILES: O=C(O)c1cc(NC(=O)c2cc(O)c(C(=O)Nc3ccc(O)c(C(=O)O)c3)cc2O)ccc1O [Ic-007a, 5-(4-(3-carboxy-4-hydroxyphenylaminocarbonyl)-2,5-dihydroxybenzamido)-2-hydroxy benzoic acid]
% of reduction, CD4+ lymphocytes, treated over vehicle treated mice [1]: 35%
% of reduction, CD8+ lymphocytes, treated over vehicle treated mice [1]: 71%
% of reduction, Leukocytes (CD45+ cells), treated over vehicle treated mice [1]: 48%
% of reduction, PMNs (CD11b-Ly6G double + cells), treated over vehicle treated mice [1]: 80%
Cell counts, CD4+ lymphocytes, treated mice ([1]; peritoneal exudate cells): 1.03 × 10^4
Cell counts, CD8+ lymphocytes, treated mice ([1]; peritoneal exudate cells): 0.54 × 10^4
Cell counts, Leukocytes (CD45+ cells), treated mice ([1]; peritoneal exudate cells): 31.3 × 10^4
Cell counts, PMNs (CD11b-Ly6G double + cells), treated mice ([1]; peritoneal exudate cells): 2.03 × 10^4
Inhibition of COX2 (COX2 (cycloxygenase-2)): partially inhibition
Antiproliferative effects on human primary cells (human primary cells): antiproliferative to human primary T cells (30 μM) and fibroblasts (30 μM, 10 μM, 3.3 μM, 1.1 μM)
Cytotoxicity in BioMap Plus (human primary cells): not cytotoxic
Immunomodulatory activities (human primary cells): decreased CD40, M-CSF
Inflammation-related activities (human primary cells): decreased VCAM-1, sTNFα, MIP-1α, I-TAC, MIG; increased IL-8; modulated IP-10
Number of annotated readouts (human primary cells): 20
Tissue remodeling activities (human primary cells): decreased Collagen I, Collagen IV, TIMP-1, tPA, Collagen III, PAI-1, uPAR, bFGF

Reference: patent US20230150951A1, “2,5- OR 2,6-DISUBSTITUTED HYDROQUINONE DERIVATIVES WITH AT LEAST ONE CARBOXY, SULFO OR AMIDO GROUP USEFUL AS MEDICAMENTS” (OM PHARMA SA, priority 2020, published 2023)
